Consider two molecules from publication PMC8807600, “Catalytic trajectory of a dimeric nonribosomal peptide synthetase subunit with an inserted epimerase domain” (Nature Communications, 2022).

One data set has as its target PchD (Pseudomonas aeruginosa, UniProt Q9HWG3). The conditions noted are these: 10 uM PchE, 10 uM PchD, 10 uM SrfD, 5 mM cysteine, 1 mM salicylate, 5 mM ATP, 10 mM MgCl2, 50 mM Tris pH 7.9, 25 C, 2.5 h; PchD loads salicylate onto ArCP of PchE (coupled read-out).
Data set [1] deals with the molecule itself. Put plainly: cryo-EM structure; PchE reacted with PchD (0.5:1), salicylate, cysteine, ATP, MgCl2, then purified on Superose 6 Increase in 50 mM Tricine pH 8.0, 1 mM MgCl2; ~4 mg/mL with 1 mM cysteine and ATP; three conformations at 2.97, 3.78 and 3.47 Å.

Sequence of PchD (Q9HWG3 whole entry): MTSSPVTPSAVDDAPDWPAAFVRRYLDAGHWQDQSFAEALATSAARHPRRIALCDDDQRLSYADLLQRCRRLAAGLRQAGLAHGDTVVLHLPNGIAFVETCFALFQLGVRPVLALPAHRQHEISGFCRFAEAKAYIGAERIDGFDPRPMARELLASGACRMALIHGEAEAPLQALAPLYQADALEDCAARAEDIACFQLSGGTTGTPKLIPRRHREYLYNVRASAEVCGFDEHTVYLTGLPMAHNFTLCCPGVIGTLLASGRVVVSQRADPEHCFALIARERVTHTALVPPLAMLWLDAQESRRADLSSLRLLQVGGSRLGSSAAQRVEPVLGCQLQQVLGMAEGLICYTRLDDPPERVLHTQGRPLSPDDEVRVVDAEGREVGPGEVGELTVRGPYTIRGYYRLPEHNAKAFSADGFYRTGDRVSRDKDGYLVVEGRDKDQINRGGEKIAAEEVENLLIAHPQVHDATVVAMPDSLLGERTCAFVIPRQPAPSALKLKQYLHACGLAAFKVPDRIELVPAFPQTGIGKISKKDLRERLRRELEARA

On to `O=C(O)c1ccccc1O` [salicylate], for which, on PchD, the “in vitro reconstitution, HPLC and LC-MS of products” value is “PchD is responsible for loading salicylate onto the ArCP domain of PchE”.

B1: PchE (dihydroaeruginoic acid synthetase, NRPS elongation module of the pyochelin pathway) (enzyme)
chain: MDLPPDSRTALRDWLTEQLADLLGEPLADVRALADDDDLLGCGLDSIRLMYLQERLRARGSTLDFAQLAQRPCLGAWLDLLACADRLSAPATVALPTAQDRDQPFELSSVQQAYWLGRGAGEVLGNVSCHAFLEFRTRDVDPQRLAAAAECVRQRHPMLRARFLDGRQQILPTPPLSCFDLQDWRTLQVDEAERDWQALRDWRAHECLAVERGQVFLLGLVRMPGGEDRLWLSLDLLAADVESLRLLLAELGVAYLAPERLAEPPALHFADYLAHRAAQRAEAAARARDYWLERLPRLPDAPALPLACAPESIRQPRTRRLAFQLSAGESRRLERLAAQHGVTLSSVFGCAFALVLARWSESAEFLLNVPLFDRHADDPRIGEVIADFTTLLLLECRMQAGVSFAEAVKSFQRNLHGAIDHAAFPALEVLREARRQGQPRSAPVVFASNLGEEGFVPAAFRDAFGDLHDMLSQTPQVWLDHQLYRVGDGILLAWDSVVGLFPEGLPETMFEAYVGLLQRLCDSAWGQPADLPLPWAQQARRALLNGQPACATARTLHRDFFLRAAEAPDADALLYRDQRVTRGELAERALRIAGGLREAGVRPGDAVEVSLPRGPQQVAAVFGVLAAGACYVPLDIDQPPARRRLIEEAAGVCLAITEEDDPQALPPRLDVQRLLRGPALAAPVPLAPQASAYVIYTSGSTGVPKGVEVSHAAAINTIDALLDLLRVNASDRLLAVSALDFDLSVFDLFGGLGAGASLVLPAQEQARDAAAWAEAIQRHAVSLWNSAPALLEMALSLPASQADYRSLRAVLLSGDWVALDLPGRLRPRCAEGCRLHVLGGATEAGIWSNLQSVDTVPPHWRSIPYGRPLPGQAYRVVDTHGRDVPDLVVGELWIGGASLARGYRNDPELSARRFVHDAQGRWYRTGDRGRYWGDGTLEFLGRVDQQVKVRGQRIELGEVEAALCAQAGVESACAAVLGGGVASLGAVLVPRLAPRAEGSMDLPAAQPFAGLAEAEAVLTREILGALLEAPLELDDGLRRRWLDWLADSAASALPSLDEALRRLGWQAAGLTAMGNALRGLLAGEQAPAALLLDPWLAPQAVAARLPDGREALARLLEALPTPAAGERLRVAVLDTRAGLWLDQGMASLLRPGLELTLFERSRVLLDAAATRLPERIVVQALDDGLLPAEHLGRYDRVISFAALHAYEASREGLALAAALLRPQGRLLLVDLLCESPLALLGAALLDDRPLRLAELPSLLADLAAAGLAPRCLWRSERIALVEALAPGLGLDAAALQAGLEQRLPQAMRPERLWCLPSLPLNGNGKVDRRRLAESMTRALGECRHEPSAEEPLEAHEQALAECWEAVLKRPVRRREASFFSLGGDSLLATRLLAGIRERFGVRLGMADFYRQPTLAGLARHLQVQTVEIEETQLEEGVL
modifications: phosphopantetheine (pPant) arms on the ArCP and PCP domains; salicyl-pPant or hydroxyphenylthiazolinyl-pPant seen in some conformations
notes: also called Strep II-tagged PchE; source: E. coli BAP1, purified (Strep-Tactin resin, Superose 6 Increase size exclusion)
What is called stoichiometry N is a count of units in the complex or per binding partner. As to B1, the “stoichiometry N” value in data set [1] was 2.
